Assay results reported in US20060258716A1, “Methods and compositions for the treatment of helicobacter pylori-associated diseases using endoperoxide bridge-containing compounds” (priority 2003, published 2006).
Converted amounts (≈) assume the structure as drawn.

Assays:
H. pylori [1] = test: Growth inhibition of H. pylori (MIC), growth monitored by spectrophotometer; type: cell-based; details: for minimal inhibitory concentration (MIC): Example 4, FIG. 4
Method: To test the effect of artemisinin on the growth of H. pylori, freshly prepared bacteria were exposed to various concentrations of artemisinin. Bacteria were grown for fixed incubation times and their growth levels were monitored using a spectrophotometer. The growth of treated bacteria was compared to that of non-treated bacteria.
To test the effectivity of artemisinin derivatives on the growth of H. pylori, freshly prepared bacteria were exposed to various concentrations of artemisinin derivatives. Bacteria were grown for fixed incubation times and their growth levels were monitored using a spectrophotometer. The growth of treated bacteria was compared to that of non-treated bacteria.

[2] = test system: E. coli strains defective in DNA-gyrase enzyme; details: cited from earlier work
[3] = test system: wild type of E. coli having intact DNA gyrase genes; details: cited from earlier work
[4] = test system: H. pylori bacterial strain SS1; test: H. pylori-infected mice, colony forming units from homogenized stomach; type: in vivo; details: oral 50 mg/kg 3 times/day for 8 days, day 4 and 8, versus placebo, FIG. 7
Method: The effect of artesunate against H. pylori infection in vivo was tested in H. pylori-infected mice. Mice were infected by inoculation (×3/day) with suspension of 10^9 H. pylori bacterial strain SS1. Two weeks following the infection, mice were treated orally with 50 mg/kg artesunate 3 times/day for 8 days. The level of bacterial infection was determined by counting the number of colony forming units derived from the homogenized stomach on day 4 and 8 of the treatment.

H. pylori [5] = test: Timed artesunate exposure and wash-out, regrowth of H. pylori cultures; type: cell-based; details: 0.625 or 6.25 mM, exposure 0.5-18 hours, then 36 hours artesunate-free medium, FIG. 5
Method: Artesunate (0.625 or 6.25 mM) was added to bacterial cultures (0.2 O.D.600) for various time points (0.5, 1, 2, 4, 6, and 18 hours). Artesunate was then washed out from the cultures by precipitation of the bacteria and washing in PBS, after which bacteria were re-suspended in a fresh artesunate-free medium. Bacteria were maintained in artesunate-free medium for additional 36 hours and bacterial growth was then determined by spectrophotometer.

H. pylori [6] = test: Anti-Helicobacter activity of artesunate after pre-incubation in simulated gastric fluid; type: cell-based; details: 1 mg/ml pre-incubated in SGF pH 1.2 at 37° C. up to 24 h, cultures then exposed 36 h, FIG. 6
Method: Artesunate (1 mg/ml) was pre-incubated in simulated gastric fluid (SGF, pH 1.2) or in bacterial broth medium (BBM, natural pH) at 37° C. for various time periods (1, 2, 4, 6, and 24 hours). After the pre-incubation, bacterial cultures (0.01 O.D) were exposed for 36 h to culture medium containing the pre-incubated artesunate. The effect of artesunate on bacterial growth was then determined by spectrophotometer.

ulcerative lesion index = details: lesions produced by ethanol and indomethacin in rats; cited from earlier work
anaerobic bacteria = details: cited from earlier work
P. acnes = test: MBC against P. acnes; type: cell-based
Method: (§1) To determine whether the effect of artemisinin is specific to H. pylori, the ability of artemisinin to inhibit the growth of E. coli and P. acnes was tested. In contrary to H. pylori, which is a microaerophilic bacterium, E. coli is an aerobic intestinal bacterium, and P. acnes is an anaerobic dermal bacterium. These bacteria were exposed to various concentrations of artemisinin, and MIC and MBC values were determined.

H. pylori [7] = test: Minimal bactericidal concentration: treated H. pylori plated on solid medium, colonies counted; type: cell-based; details: no colony-forming units on solid medium
Method: To further determine the antibacterial effect of artemisinin, H. pylori maintained in the presence of various concentrations of artemisinin were plated on solid medium and the number of single colonies was monitored.

cancer cells = details: cited from earlier work
E. coli = test: MBC against E. coli; type: cell-based
Method: as §1

[8] = test system: Lactobacillus acidophilus; test: MBC against Lactobacillus acidophilus; type: cell-based; details: L. acidophilus
Method: (§2) The effect of artemisinin on the growth and viability of Lactobacillus acidophilus (L. acidophilus) that is part of the normal flora of the intestine was examined. L. acidophilus bacteria were grown with various concentration of artemisinin and its effect was determined.

[9] = test system: Lactobacillus acidophilus; test: MIC / growth of Lactobacillus acidophilus; type: cell-based
Method: as §2

[10] = test system: H. pylori exhibiting resistance to clarithromycin (CLR) and metronoidazole; test: Growth of clarithromycin- and metronidazole-resistant H. pylori strains; type: cell-based; details: 2.5-10 μM artemisinin, 3 days, micro-aerophilic conditions, FIG. 2
Method: Unsuccessful therapy in patients infected with H. pylori is frequently correlated to clarithromycin and metronidazole resistance. […] Bacterial cultures were incubated in micro-aerophilic conditions. The effect of clarithromycin or artemisinin on bacterial growth was tested using a spectrophotometer after 3 days.

H. pylori [11] = test: Combined effect of artemisinin and omeprazole on H. pylori growth; type: cell-based; details: 0.5 μg/ml artemisinin alone, 3 days
Method: In order to explore the possible synergism between artemisinin and a PPI, the growth of bacteria in the presence of artemisinin, omeprazole or both was examined. H. pylori bacteria were grown in the presence of 3-24 μg/ml omeprazole or 0.5-4 μg/ml of artemisinin. Bacterial cultures were incubated in micro-aerophilic conditions. The combined effect of artemisinin and omeprazole on bacterial growth was tested using a spectrophotometer after 3 days.

CCO[C@H]1O[C@@H]2O[C@@]3(C)CC[C@H]4[C@H](C)CC[C@@H]([C@H]1C)[C@@]24OO3 [arteether]
minimal inhibitory concentration (MIC) (H. pylori [1]): 0.15 to 0.3 µM

CCO[C@@H]1O[C@@H]2O[C@]3(C)CC[C@H]4[C@H](C)CC[C@@H]([C@H]1C)[C@@]24OO3 [α-arteether]
Growth inhibition [2]: inhibits the growth
Sensitivity [3]: not sensitive

C[C@H]1[C@H](OC(=O)CCC(=O)O)O[C@@H]2O[C@@]3(C)CC[C@H]4[C@H](C)CC[C@@H]1[C@@]24OO3 [artesunate]
Number of colony forming units from homogenized stomach [4]: efficiently reduced the number of colony forming units
Bacterial growth after wash-out of artesunate (H. pylori [5]): irreversible bacterial eradication
Anti-Helicobacter activity after pre-incubation in low pH (H. pylori [6]): preserved

C[C@@H]1CC[C@H]2[C@@H](C)C(=O)O[C@@H]3O[C@@]4(C)CC[C@@H]1[C@]32O4 [deoxyartemisinin]
Gastric cytoprotection (ulcerative lesion index) (ulcerative lesion index): provided gastric cytoprotection

CO[C@H]1O[C@@H]2O[C@@]3(C)CC[C@H]4[C@H](C)CC[C@@H]([C@H]1C)[C@@]24OO3 [artemether]
minimal inhibitory concentration (MIC) (H. pylori [1]): 0.3 to 0.6 µM

dihydro-epideoxyarteannuin B
Gastric cytoprotection (ulcerative lesion index) (ulcerative lesion index): provided gastric cytoprotection

C[C@@H]1CC[C@H]2[C@@H](C)C(=O)O[C@@H]3O[C@@]4(C)CC[C@@H]1[C@]32OO4 [artemisinin]
Anti-microbial activity (anaerobic bacteria): possesses an anti-microbial activity
MIC (minimal inhibitory concentration) (H. pylori [1]; Example 1, Table 1): 2.5 µM (≈ 0.706 µg/mL)
MBC (minimal bactericidal concentration) (P. acnes): >5000 µM
MBC (minimal bactericidal concentration) (H. pylori [7]): 125 to 250 µM
Concentration range toxic to cancer cells in vitro (cancer cells): 20 to 180 µM
MBC (minimal bactericidal concentration) (E. coli): >5000 µM
MBC (minimal bactericidal concentration) [8]: >5000 µM
MIC (minimal inhibitory concentration) ([9]; L. acidophilus): >5000 µM
Effect on growth of L. acidophilus ([9]; any used concentration below 5 mg/ml): did not affect the growth
Sensitivity of clarithromycin- and metronidazole-resistant H. pylori strains [10]: significant sensitivity
Bacterial growth, artemisinin alone (H. pylori [11]): not effective alone
